Measurements as given in ChEMBL document CHEMBL1201862, “PubChem BioAssay data set” (2004).
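Cells were grown in 96-well plates and exposed to each compound for 48 hours at five concentrations; endpoints were interpolated linearly between bracketing concentrations, or set to the highest concentration if not reached. GI50 marks 50% less growth.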 Calls of active or inactive are those of the source. Rule as the data show it: active = GI50 up to about 1.1 µM and inactive = higher.

Columns and labels:
Experiment in all cases: NCI-60 cell line screen, 48 h
IGROV-1 = system: IGROV-1
NCI-H23 = system: NCI-H23
SK-OV-3 = system: SK-OV-3
TK-10 = system: TK-10
MDA-MB-435 = system: MDA-MB-435
HL-60 = system: HL-60
OVCAR-5 = system: OVCAR-5
SF-295 = system: SF-295
RXF 393 = system: RXF 393
UACC-257 = system: UACC-257
OVCAR-3 = system: OVCAR-3
A549 = system: A549
Hs-578T = system: Hs-578T
HCT-116 = system: HCT-116
SF-268 = system: SF-268
CCRF-CEM = system: CCRF-CEM
T47D = system: T47D
MOLT-4 = system: MOLT-4
UACC-62 = system: UACC-62
SK-MEL-28 = system: SK-MEL-28
HT-29 = system: HT-29
NCI/ADR-RES = system: NCI/ADR-RES
SNB-75 = system: SNB-75
MDA-N = system: MDA-N
PC-3 = system: PC-3
U-251 = system: U-251
M14 = system: M14
786-0 = system: 786-0
EKVX = system: EKVX
NCI-H226 = system: NCI-H226
HCC 2998 = system: HCC 2998
OVCAR-8 = system: OVCAR-8
A498 = system: A498
ACHN = system: ACHN
DU-145 = system: DU-145
COLO 205 = system: COLO 205
BT-549 = system: BT-549
MDA-MB-231 = system: MDA-MB-231
SW-620 = system: SW-620
SN12C = system: SN12C
HOP-62 = system: HOP-62
SK-MEL-2 = system: SK-MEL-2
HOP-92 = system: HOP-92
Malme-3M = system: Malme-3M
LOX IMVI = system: LOX IMVI
CAKI-1 = system: CAKI-1
SF-539 = system: SF-539
NCI-H460 = system: NCI-H460
NCI-H522 = system: NCI-H522
OVCAR-4 = system: OVCAR-4
SNB-19 = system: SNB-19
K562 = system: K562
MCF7 = system: MCF7
KM12 = system: KM12
HCT-15 = system: HCT-15
RPMI-8226 = system: RPMI-8226
UO-31 = system: UO-31
SK-MEL-5 = system: SK-MEL-5

**Q.** For `CCOC(=O)c1c(N2CCOCC2)ncn(-c2cccc(Cl)c2)c1=O`, which GI50 (IGROV-1) is on record?
**A.** > 100 µM (inactive)

**Q.** What about the GI50 (NCI-H23) of the same compound?
**A.** > 100 µM (inactive)

**Q.** And the GI50 (SK-OV-3)?
**A.** > 100 µM (inactive)

**Q.** What about the GI50 (TK-10) of the same compound?
**A.** > 100 µM (inactive)

**Q.** And the GI50 (MDA-MB-435)?
**A.** > 100 µM (inactive)

**Q.** What about the GI50 (HL-60) of the same compound?
**A.** > 100 µM (inactive)

**Q.** What about the GI50 (OVCAR-5) of the same compound?
**A.** > 100 µM (inactive)

**Q.** And the GI50 (SF-295)?
**A.** > 100 µM (inactive)

**Q.** And the GI50 (RXF 393)?
**A.** > 100 µM (inactive)

**Q.** What about the GI50 (UACC-257) of the same compound?
**A.** > 100 µM (inactive)

**Q.** What about the GI50 (OVCAR-3) of the same compound?
**A.** > 100 µM (inactive)

**Q.** What about the GI50 (A549) of the same compound?
**A.** > 100 µM (inactive)

**Q.** And the GI50 (Hs-578T)?
**A.** > 100 µM (inactive)

**Q.** And the GI50 (HCT-116)?
**A.** > 100 µM (inactive)

**Q.** And the GI50 (SF-268)?
**A.** > 100 µM (inactive)

**Q.** And the GI50 (CCRF-CEM)?
**A.** > 100 µM (inactive)

**Q.** What about the GI50 (T47D) of the same compound?
**A.** > 100 µM (inactive)

**Q.** What about the GI50 (MOLT-4) of the same compound?
**A.** > 100 µM (inactive)

**Q.** And the GI50 (UACC-62)?
**A.** > 100 µM (inactive)

**Q.** And the GI50 (SK-MEL-28)?
**A.** > 100 µM (inactive)

**Q.** And the GI50 (HT-29)?
**A.** > 100 µM (inactive)

**Q.** And the GI50 (NCI/ADR-RES)?
**A.** > 100 µM (inactive)

**Q.** What about the GI50 (SNB-75) of the same compound?
**A.** > 100 µM (inactive)

**Q.** And the GI50 (MDA-N)?
**A.** > 100 µM (inactive)

**Q.** What about the GI50 (PC-3) of the same compound?
**A.** > 100 µM (inactive)

**Q.** And the GI50 (U-251)?
**A.** > 100 µM (inactive)

**Q.** What about the GI50 (M14) of the same compound?
**A.** > 100 µM (inactive)

**Q.** And the GI50 (786-0)?
**A.** > 100 µM (inactive)

**Q.** And the GI50 (EKVX)?
**A.** > 100 µM (inactive)

**Q.** And the GI50 (NCI-H226)?
**A.** > 100 µM (inactive)

**Q.** What about the GI50 (HCC 2998) of the same compound?
**A.** > 100 µM (inactive)

**Q.** And the GI50 (OVCAR-8)?
**A.** > 100 µM (inactive)

**Q.** And the GI50 (A498)?
**A.** 0.159 µM (active)

**Q.** What about the GI50 (ACHN) of the same compound?
**A.** > 100 µM (inactive)

**Q.** What about the GI50 (DU-145) of the same compound?
**A.** > 100 µM (inactive)

**Q.** What about the GI50 (COLO 205) of the same compound?
**A.** > 100 µM (inactive)

**Q.** What about the GI50 (BT-549) of the same compound?
**A.** > 100 µM (inactive)

**Q.** And the GI50 (MDA-MB-231)?
**A.** > 100 µM (inactive)

**Q.** What about the GI50 (SW-620) of the same compound?
**A.** > 100 µM (inactive)

**Q.** What about the GI50 (SN12C) of the same compound?
**A.** > 100 µM (inactive)

**Q.** What about the GI50 (HOP-62) of the same compound?
**A.** > 100 µM (inactive)

**Q.** And the GI50 (SK-MEL-2)?
**A.** > 100 µM (inactive)

**Q.** And the GI50 (HOP-92)?
**A.** > 100 µM (inactive)

**Q.** What about the GI50 (Malme-3M) of the same compound?
**A.** > 100 µM (inactive)

**Q.** And the GI50 (LOX IMVI)?
**A.** > 100 µM (inactive)

**Q.** And the GI50 (CAKI-1)?
**A.** > 100 µM (inactive)

**Q.** What about the GI50 (SF-539) of the same compound?
**A.** > 100 µM (inactive)

**Q.** And the GI50 (NCI-H460)?
**A.** > 100 µM (inactive)

**Q.** What about the GI50 (NCI-H522) of the same compound?
**A.** > 100 µM (inactive)

**Q.** What about the GI50 (OVCAR-4) of the same compound?
**A.** > 100 µM (inactive)

**Q.** What about the GI50 (SNB-19) of the same compound?
**A.** > 100 µM (inactive)

**Q.** What about the GI50 (K562) of the same compound?
**A.** > 100 µM (inactive)

**Q.** And the GI50 (MCF7)?
**A.** > 100 µM (inactive)

**Q.** And the GI50 (KM12)?
**A.** > 100 µM (inactive)

**Q.** And the GI50 (HCT-15)?
**A.** > 100 µM

**Q.** What about the GI50 (RPMI-8226) of the same compound?
**A.** > 100 µM (inactive)

**Q.** How did the GI50 (NCI-H23) turn out when `CCCCCCCCCCCCNC(C)=O` was run?
**A.** 15.7 µM (inactive)

**Q.** What about the GI50 (SK-OV-3) of the same compound?
**A.** 15.7 µM (inactive)

**Q.** What about the GI50 (TK-10) of the same compound?
**A.** 13.7 µM (inactive)

**Q.** And the GI50 (MDA-MB-435)?
**A.** 18.2 µM (inactive)

**Q.** And the GI50 (SF-295)?
**A.** 17.7 µM (inactive)

**Q.** And the GI50 (RXF 393)?
**A.** 18.9 µM (inactive)

**Q.** And the GI50 (UACC-257)?
**A.** 23.2 µM (inactive)

**Q.** What about the GI50 (OVCAR-3) of the same compound?
**A.** 17.7 µM (inactive)

**Q.** And the GI50 (A549)?
**A.** 27 µM (inactive)

**Q.** And the GI50 (Hs-578T)?
**A.** 14.4 µM (inactive)

**Q.** What about the GI50 (HCT-116) of the same compound?
**A.** 17.9 µM (inactive)

**Q.** What about the GI50 (SF-268) of the same compound?
**A.** 14.3 µM (inactive)

**Q.** What about the GI50 (CCRF-CEM) of the same compound?
**A.** 14.4 µM (inactive)

**Q.** And the GI50 (T47D)?
**A.** 18.9 µM (inactive)

**Q.** What about the GI50 (UACC-62) of the same compound?
**A.** 15.6 µM (inactive)

**Q.** And the GI50 (SK-MEL-28)?
**A.** 17.6 µM (inactive)

**Q.** What about the GI50 (HT-29) of the same compound?
**A.** 19.5 µM (inactive)

**Q.** What about the GI50 (NCI/ADR-RES) of the same compound?
**A.** 17.3 µM (inactive)

**Q.** What about the GI50 (SNB-75) of the same compound?
**A.** 23.6 µM (inactive)

**Q.** What about the GI50 (MDA-N) of the same compound?
**A.** 16.7 µM (inactive)

**Q.** What about the GI50 (PC-3) of the same compound?
**A.** 14.5 µM (inactive)

**Q.** And the GI50 (U-251)?
**A.** 15.4 µM (inactive)

**Q.** What about the GI50 (M14) of the same compound?
**A.** 17 µM (inactive)

**Q.** And the GI50 (786-0)?
**A.** 16.8 µM (inactive)

**Q.** What about the GI50 (EKVX) of the same compound?
**A.** 11.4 µM (inactive)

**Q.** What about the GI50 (NCI-H226) of the same compound?
**A.** 18.7 µM (inactive)

**Q.** And the GI50 (HCC 2998)?
**A.** 17.5 µM (inactive)

**Q.** And the GI50 (UO-31)?
**A.** 20 µM (inactive)

**Q.** What about the GI50 (OVCAR-8) of the same compound?
**A.** 18.9 µM (inactive)

**Q.** What about the GI50 (A498) of the same compound?
**A.** 20 µM (inactive)

**Q.** What about the GI50 (ACHN) of the same compound?
**A.** 23.2 µM (inactive)

**Q.** And the GI50 (DU-145)?
**A.** 30.9 µM (inactive)

**Q.** What about the GI50 (COLO 205) of the same compound?
**A.** 17.7 µM (inactive)

**Q.** And the GI50 (BT-549)?
**A.** 13.7 µM (inactive)

**Q.** What about the GI50 (MDA-MB-231) of the same compound?
**A.** 13.8 µM (inactive)

**Q.** What about the GI50 (SW-620) of the same compound?
**A.** 16.8 µM (inactive)

**Q.** And the GI50 (SN12C)?
**A.** 16.6 µM (inactive)

**Q.** And the GI50 (HOP-62)?
**A.** 14.3 µM (inactive)

**Q.** What about the GI50 (SK-MEL-2) of the same compound?
**A.** 14.8 µM (inactive)

**Q.** And the GI50 (HOP-92)?
**A.** 2.26 µM (inactive)

**Q.** And the GI50 (Malme-3M)?
**A.** 17.7 µM (inactive)

**Q.** What about the GI50 (LOX IMVI) of the same compound?
**A.** 6.85 µM (inactive)

**Q.** And the GI50 (CAKI-1)?
**A.** 17 µM (inactive)

**Q.** And the GI50 (SF-539)?
**A.** 16.3 µM (inactive)

**Q.** What about the GI50 (NCI-H460) of the same compound?
**A.** 17.7 µM (inactive)

**Q.** What about the GI50 (NCI-H522) of the same compound?
**A.** 14 µM (inactive)

**Q.** And the GI50 (SNB-19)?
**A.** 16.3 µM (inactive)

**Q.** And the GI50 (SK-MEL-5)?
**A.** 16.8 µM (inactive)

**Q.** What about the GI50 (MCF7) of the same compound?
**A.** 17.1 µM (inactive)

**Q.** And the GI50 (KM12)?
**A.** 17.8 µM (inactive)

**Q.** What about the GI50 (HCT-15) of the same compound?
**A.** 16.9 µM

**Q.** And the GI50 (RPMI-8226)?
**A.** 13.4 µM (inactive)
